Reference: publication PMC6421522, “Designing Dual Inhibitors of Anaplastic Lymphoma Kinase (ALK) and Bromodomain-4 (BRD4) by Tuning Kinase Selectivity” (Journal of Medicinal Chemistry, 2019)

How the values were obtained:
Assay in all cases: Bromodomain thermal shift screening (DSF)
Type in all cases: binding
BRDT(1) = target: T1, BRDT(1) (Homo sapiens, UniProt Q58F21); details: Group II (BET)
T1 construct: Bromodomain thermal shift screening data for 16k
Protocol: (§1) BRD4 thermal shift was measured in a differential scanning fluorimetry (DSF) assay. The assay was performed on a Stratagene Mx3005P system quantitative polymerase chain reaction (qPCR). The assay was performed in 96-well plates with 20 μL of protein at 2 μM in DSF-assay buffer (10 mM HEPES pH 7.5, 500 mM NaCl) to which 4 μL of Sypro orange dye and 0.4 μL of 10 μM compound in DMSO was added. The plate was sealed and centrifuged (1 min, 1000 rpm), and the qPCR machine was used to detect SYPRO fluorescence while increasing the temperature from 25 to 95 °C in 71 cycles. The sigmoidal part of the fluorescence signal was fitted using the Boltzmann equation, the points of change were defined, and the thermal shift was calculated by subtracting the protein/DMSO Tm shift from the protein/compound Tm shift.

PB1A(4) = target: T2, PB1A(4) (Homo sapiens, UniProt Q86U86); details: Group VIII
T2 construct: Bromodomain thermal shift screening data for 16k
T2 sequence (Q86U86 518-625 limits assumed): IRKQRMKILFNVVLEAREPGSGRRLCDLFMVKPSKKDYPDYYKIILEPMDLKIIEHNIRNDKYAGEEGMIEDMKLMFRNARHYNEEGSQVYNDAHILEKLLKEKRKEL
Protocol: as §1

PB1A(6) = target: T3, PB1A(6) (Homo sapiens, UniProt Q86U86); details: Group VIII
T3 construct: Bromodomain thermal shift screening data for 16k
T3 sequence (Q86U86 769-879 limits assumed): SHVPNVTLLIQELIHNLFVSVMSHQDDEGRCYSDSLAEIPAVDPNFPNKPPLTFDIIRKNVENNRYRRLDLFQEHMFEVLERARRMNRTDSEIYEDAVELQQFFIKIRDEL
Protocol: as §1

PCAF = target: T4, PCAF (Homo sapiens, UniProt Q92831); details: Group I
T4 construct: Bromodomain thermal shift screening data for 16k
T4 sequence (Q92831 723-827 limits assumed): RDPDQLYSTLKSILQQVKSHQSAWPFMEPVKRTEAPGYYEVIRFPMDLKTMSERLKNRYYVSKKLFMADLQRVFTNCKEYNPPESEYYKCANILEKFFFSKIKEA
Protocol: as §1

Thermal Shift (BRDT(1)): 2.7 K
Thermal Shift (PB1A(4)): -0.1 K
Thermal Shift (PB1A(6)): -2.75 K
Thermal Shift (PCAF): -1.65 K
SMILES: CCOc1cc(C2CCN(C)CC2)ccc1Nc1ncc2c(n1)N(Cc1cc(C)cs1)[C@H](CC)C(=O)N2C [16k, (R)-2-((2-Ethoxy-4-(1-methylpiperidin-4-yl)phenyl)amino)-7-ethyl-5-methyl-8-((4-methylthiophen-2-yl)methyl)-7,8-dihydropteridin-6(5H)-one]
